Results: paper PMC5218480 (PLoS ONE, 2017)

Tested on: MV-4-11 cells
Test: Gene expression microarray analysis (Affymetrix PrimeView) and GSEA
Type: cell-based, human
Parameters: RFU PODN (11730768_x_at) / Fold change /veh PODN (11730768_x_at) / RFU LINC00158 (11744669_a_at) / Fold change /veh LINC00158 (11744669_a_at) / RFU DUSP10 (11751237_a_at) / Fold change /veh DUSP10 (11751237_a_at) / RFU ID3 (11757404_x_at) / Fold change /veh ID3 (11757404_x_at) / RFU PLEKHG5 (11737974_s_at) / Fold change /veh PLEKHG5 (11737974_s_at) / RFU LRRC4B (11730491_at) / Fold change /veh LRRC4B (11730491_at) / RFU GIMAP4 (11747438_a_at) / Fold change /veh GIMAP4 (11747438_a_at) / RFU KRT8 (11758183_x_at) / Fold change /veh KRT8 (11758183_x_at) / RFU CNN1 (11734310_a_at) / Fold change /veh CNN1 (11734310_a_at) / RFU VPS37D (11726825_at) / Fold change /veh VPS37D (11726825_at) / RFU C10orf10 (11716522_x_at) / Fold change /veh C10orf10 (11716522_x_at) / RFU KIR2DL2 /// KIR2DL4 /// KIR2DL5A /// KIR2DL5B /// KIR2DS1 /// KIR2DS2 /// KIR2DS3 /// KIR2DS4 /// KIR3DL3 /// KIR3DL3 /// KIR3DS1 (11738374_at) / Fold change /veh KIR2DL2 /// KIR2DL4 /// KIR2DL5A /// KIR2DL5B /// KIR2DS1 /// KIR2DS2 /// KIR2DS3 /// KIR2DS4 /// KIR3DL3 /// KIR3DL3 /// KIR3DS1 (11738374_at) / RFU C1QL1 (11718748_at) / Fold change /veh C1QL1 (11718748_at) / RFU TMPRSS4 (11747572_a_at) / Fold change /veh TMPRSS4 (11747572_a_at) / RFU HAMP (11756126_x_at) / Fold change /veh HAMP (11756126_x_at) / RFU RNFT2 (11725882_a_at) / Fold change /veh RNFT2 (11725882_a_at) / RFU NR4A2 (11747474_a_at) / Fold change /veh NR4A2 (11747474_a_at) / RFU ABCC12 (11746883_a_at) / Fold change /veh ABCC12 (11746883_a_at) / RFU TMEM136 (11760407_x_at) / Fold change /veh TMEM136 (11760407_x_at) / RFU CLDN22 /// WWC2 (11732394_at) / Fold change /veh CLDN22 /// WWC2 (11732394_at) / RFU HLA-DPB1 (11760878_x_at) / Fold change /veh HLA-DPB1 (11760878_x_at) / RFU SPINT1 (11716480_a_at) / Fold change /veh SPINT1 (11716480_a_at) / RFU GAP43 (11754022_s_at) / Fold change /veh GAP43 (11754022_s_at) / RFU A4GNT (11735810_at) / Fold change /veh A4GNT (11735810_at) / RFU PRB3 (11715151_x_at) / Fold change /veh PRB3 (11715151_x_at) / RFU TUBB4B (11761932_at) / Fold change /veh TUBB4B (11761932_at) / RFU CAPN14 (11732068_a_at) / Fold change /veh CAPN14 (11732068_a_at) / RFU TMCC2 (11721928_a_at) / Fold change /veh TMCC2 (11721928_a_at) / RFU IRGQ (11745062_a_at) / Fold change /veh IRGQ (11745062_a_at) / RFU FAM174B (11720279_a_at) / Fold change /veh FAM174B (11720279_a_at) / RFU TMPRSS4 (11748680_a_at) / Fold change /veh TMPRSS4 (11748680_a_at) / RFU FAM212B (11763350_a_at) / Fold change /veh FAM212B (11763350_a_at) / RFU PLEKHG5 (11743358_a_at) / Fold change /veh PLEKHG5 (11743358_a_at) / RFU ZSCAN30 (11745921_a_at) / Fold change /veh ZSCAN30 (11745921_a_at) / RFU CMKLR1 (11741424_a_at) / Fold change /veh CMKLR1 (11741424_a_at) / RFU LOC101060620 /// MAPK8IP1 (11723275_at) / Fold change /veh LOC101060620 /// MAPK8IP1 (11723275_at) / RFU SPTSSB (11747773_x_at) / Fold change /veh SPTSSB (11747773_x_at) / RFU PRSS12 (11739890_at) / Fold change /veh PRSS12 (11739890_at) / RFU BIN1 (11741810_x_at) / Fold change /veh BIN1 (11741810_x_at) / RFU WNT11 (11732464_a_at) / Fold change /veh WNT11 (11732464_a_at) / RFU C10orf10 (11716521_a_at) / Fold change /veh C10orf10 (11716521_a_at) / RFU C5orf56 (11738089_at) / Fold change /veh C5orf56 (11738089_at) / RFU CYB561 (11721691_x_at) / Fold change /veh CYB561 (11721691_x_at) / RFU ANKRD19P (11752326_a_at) / Fold change /veh ANKRD19P (11752326_a_at) / RFU OR2T12 /// OR2T33 /// OR2T8 (11738714_s_at) / Fold change /veh OR2T12 /// OR2T33 /// OR2T8 (11738714_s_at) / RFU VCAN (11748164_a_at) / Fold change /veh VCAN (11748164_a_at) / RFU JSRP1 (11732532_at) / Fold change /veh JSRP1 (11732532_at) / RFU KRTAP10-11 (11738290_x_at) / Fold change /veh KRTAP10-11 (11738290_x_at) / RFU MYO3A (11730013_a_at) / Fold change /veh MYO3A (11730013_a_at) / RFU EBF3 (11725865_a_at) / Fold change /veh EBF3 (11725865_a_at) / RFU CAMK2N1 (11719241_x_at) / Fold change /veh CAMK2N1 (11719241_x_at) / RFU C5orf56 (11738088_a_at) / Fold change /veh C5orf56 (11738088_a_at) / RFU OLFML3 (11715873_a_at) / Fold change /veh OLFML3 (11715873_a_at) / RFU LOC100653217 /// NTM (11731650_a_at) / Fold change /veh LOC100653217 /// NTM (11731650_a_at) / RFU MAPK11 (11762145_a_at) / Fold change /veh MAPK11 (11762145_a_at) / RFU FIZ1 (11724087_x_at) / Fold change /veh FIZ1 (11724087_x_at) / RFU OASL (11726364_x_at) / Fold change /veh OASL (11726364_x_at) / RFU SOX15 (11748057_x_at) / Fold change /veh SOX15 (11748057_x_at) / RFU CD79A (11719716_a_at) / Fold change /veh CD79A (11719716_a_at) / RFU HIST1H1D (11736915_at) / Fold change /veh HIST1H1D (11736915_at) / RFU CASKIN2 (11723855_a_at) / Fold change /veh CASKIN2 (11723855_a_at) / RFU LOC730098 (11760151_x_at) / Fold change /veh LOC730098 (11760151_x_at) / RFU OR4N2 (11742367_at) / Fold change /veh OR4N2 (11742367_at) / RFU PRRT2 (11749266_a_at) / Fold change /veh PRRT2 (11749266_a_at) / RFU SNX32 (11753110_a_at) / Fold change /veh SNX32 (11753110_a_at) / RFU CDHR5 (11726645_a_at) / Fold change /veh CDHR5 (11726645_a_at) / RFU RCAN1 (11760418_a_at) / Fold change /veh RCAN1 (11760418_a_at) / RFU FAM167A (11723789_a_at) / Fold change /veh FAM167A (11723789_a_at) / RFU FAM26E (11764081_at) / Fold change /veh FAM26E (11764081_at) / RFU ISYNA1 (11749810_s_at) / Fold change /veh ISYNA1 (11749810_s_at) / RFU ACY1 (11761880_at) / Fold change /veh ACY1 (11761880_at) / RFU 11764098_at / Fold change /veh 11764098_at / RFU SAMD14 (11745864_x_at) / Fold change /veh SAMD14 (11745864_x_at) / RFU NPB (11741838_a_at) / Fold change /veh NPB (11741838_a_at) / RFU TMPRSS6 (11731388_a_at) / Fold change /veh TMPRSS6 (11731388_a_at) / RFU KRTAP10-2 (11738614_at) / Fold change /veh KRTAP10-2 (11738614_at) / RFU ARHGAP8 /// PRR5-ARHGAP8 (11727945_x_at) / Fold change /veh ARHGAP8 /// PRR5-ARHGAP8 (11727945_x_at) / RFU KRTAP5-7 /// NADSYN1 (11734609_at) / Fold change /veh KRTAP5-7 /// NADSYN1 (11734609_at) / RFU RASL12 (11751679_a_at) / Fold change /veh RASL12 (11751679_a_at) / RFU CDKN2B (11736163_a_at) / Fold change /veh CDKN2B (11736163_a_at) / RFU PRF1 (11729649_at) / Fold change /veh PRF1 (11729649_at) / RFU, ZNF638 /// ZNF638-IT1 / Fold change vs veh, ZNF638 /// ZNF638-IT1 / RFU, PANK3 / Fold change vs veh, PANK3 / RFU, SH3YL1 / Fold change vs veh, SH3YL1 / RFU, ZEB2 / Fold change vs veh, ZEB2 / RFU, NRIP1 / Fold change vs veh, NRIP1 / RFU, PTTG1IP / Fold change vs veh, PTTG1IP / RFU, CAPN2 / Fold change vs veh, CAPN2 / RFU, MED14 / Fold change vs veh, MED14 / RFU, SNORA58 / Fold change vs veh, SNORA58 / RFU, C1orf63 / Fold change vs veh, C1orf63 / RFU, LRRFIP1 / Fold change vs veh, LRRFIP1 / RFU, NDUFAF7 / Fold change vs veh, NDUFAF7 / RFU, SLC12A2 / Fold change vs veh, SLC12A2 / RFU, IBTK / Fold change vs veh, IBTK / RFU, ESF1 / Fold change vs veh, ESF1 / Fold change vs veh, TMEM50B / RFU, TAOK1 / Fold change vs veh, TAOK1 / RFU, ACBD3 / Fold change vs veh, ACBD3 / RFU, TMA16 / Fold change vs veh, TMA16 / RFU, RWDD3 / Fold change vs veh, RWDD3 / RFU, BCAT1 / Fold change vs veh, BCAT1 / RFU, EDEM3 / Fold change vs veh, EDEM3 / RFU, TMEM33 / Fold change vs veh, TMEM33 / RFU, WDR75 / Fold change vs veh, WDR75 / RFU, AHCTF1 / Fold change vs veh, AHCTF1 / RFU, TFRC / Fold change vs veh, TFRC / RFU, ZDHHC17 / Fold change vs veh, ZDHHC17 / RFU, NOM1 / Fold change vs veh, NOM1 / RFU, ARL8B / Fold change vs veh, ARL8B / RFU, ZBTB11 / Fold change vs veh, ZBTB11 / RFU, TAMM41 / Fold change vs veh, TAMM41 / RFU, KIAA1704 /// LOC100996395 / Fold change vs veh, KIAA1704 /// LOC100996395 / RFU, ING1 / Fold change vs veh, ING1 / RFU, TRMT61B / Fold change vs veh, TRMT61B / RFU, FUBP3 / Fold change vs veh, FUBP3 / RFU, TP53 / Fold change vs veh, TP53 / RFU, TNKS2 / Fold change vs veh, TNKS2 / RFU, ZFP14 / Fold change vs veh, ZFP14 / RFU, ACTR2 / Fold change vs veh, ACTR2 / RFU, PPP3R1 / Fold change vs veh, PPP3R1 / RFU, PIK3R1 / Fold change vs veh, PIK3R1 / RFU, HNRNPA1 / Fold change vs veh, HNRNPA1 / RFU, RNF170 / Fold change vs veh, RNF170 / RFU, ZNF28 / Fold change vs veh, ZNF28 / RFU, RNGTT / Fold change vs veh, RNGTT / RFU, OGT / Fold change vs veh, OGT / RFU, BRD1 / Fold change vs veh, BRD1 / RFU, MARS / Fold change vs veh, MARS / RFU, ZNF655 / Fold change vs veh, ZNF655 / RFU, FAHD1 / Fold change vs veh, FAHD1 / RFU, BDP1 / Fold change vs veh, BDP1 / RFU, LRRCC1 / Fold change vs veh, LRRCC1 / RFU, ARID1A / Fold change vs veh, ARID1A / RFU, ZNF146 / Fold change vs veh, ZNF146 / RFU, ZNF330 / Fold change vs veh, ZNF330 / RFU, GPN3 / Fold change vs veh, GPN3 / RFU, C9orf123 / Fold change vs veh, C9orf123 / RFU, N4BP2L2 / Fold change vs veh, N4BP2L2 / RFU, ARFIP1 / Fold change vs veh, ARFIP1 / RFU, FAM179B / Fold change vs veh, FAM179B / RFU, BCL10 / Fold change vs veh, BCL10 / RFU, UHRF1BP1L / Fold change vs veh, UHRF1BP1L / RFU, BET1 / Fold change vs veh, BET1 / RFU, CNOT2 / Fold change vs veh, CNOT2 / RFU, ZNF268 / Fold change vs veh, ZNF268 / Fold change vs veh, ZNF507 / RFU, DGCR2 / Fold change vs veh, DGCR2 / RFU, WDSUB1 / Fold change vs veh, WDSUB1 / Fold change vs veh, HSP90B1 /// MIR3652 / RFU, ADSS / Fold change vs veh, ADSS / RFU, GK / Fold change vs veh, GK / RFU, ZNF148 / Fold change vs veh, ZNF148 / RFU, TAF9 / Fold change vs veh, TAF9 / RFU, SLC1A5 / Fold change vs veh, SLC1A5 / RFU, SLMO2 / Fold change vs veh, SLMO2 / RFU, ABCC4 / Fold change vs veh, ABCC4 / RFU, LOC101060439 /// RAP1B / Fold change vs veh, LOC101060439 /// RAP1B / RFU, RFX7 / Fold change vs veh, RFX7 / RFU, GTPBP10 / Fold change vs veh, GTPBP10 / RFU, CNEP1R1 / Fold change vs veh, CNEP1R1 / RFU, BIVM-ERCC5 /// ERCC5 / Fold change vs veh, BIVM-ERCC5 /// ERCC5 / RFU, ILF3 / Fold change vs veh, ILF3 / RFU 11762660_at / Fold change /veh 11762660_at / RFU VCAN (11757783_s_at) / Fold change /veh VCAN (11757783_s_at) / RFU DDX43 (11728927_at) / Fold change /veh DDX43 (11728927_at) / RFU KRT8 (11758188_x_at) / Fold change /veh KRT8 (11758188_x_at) / RFU NKD1 (11759106_at) / Fold change /veh NKD1 (11759106_at) / RFU SRD5A1 (11742802_a_at) / Fold change /veh SRD5A1 (11742802_a_at) / RFU TPSAB1 /// TPSB2 (11721975_s_at) / Fold change /veh TPSAB1 /// TPSB2 (11721975_s_at) / RFU GSTM3 (11746129_a_at) / Fold change /veh GSTM3 (11746129_a_at) / RFU IL23R (11737362_x_at) / Fold change /veh IL23R (11737362_x_at) / RFU TMEM51 (11727254_a_at) / Fold change /veh TMEM51 (11727254_a_at) / RFU PIWIL2 (11732686_x_at) / Fold change /veh PIWIL2 (11732686_x_at) / RFU ORM1 (11744905_x_at) / Fold change /veh ORM1 (11744905_x_at) / RFU CCDC152 (11743942_at) / Fold change /veh CCDC152 (11743942_at) / RFU ECM1 (11717891_a_at) / Fold change /veh ECM1 (11717891_a_at) / RFU IL23R (11748794_a_at) / Fold change /veh IL23R (11748794_a_at) / RFU TNFAIP8L3 (11732012_x_at) / Fold change /veh TNFAIP8L3 (11732012_x_at) / RFU MBOAT4 (11741988_at) / Fold change /veh MBOAT4 (11741988_at) / RFU 11764193_at / Fold change /veh 11764193_at / RFU TMEM53 (11763286_at) / Fold change /veh TMEM53 (11763286_at) / RFU MAGEB2 (11727129_at) / Fold change /veh MAGEB2 (11727129_at) / RFU TMEM200A (11744735_a_at) / Fold change /veh TMEM200A (11744735_a_at) / RFU CCDC152 (11751479_a_at) / Fold change /veh CCDC152 (11751479_a_at) / RFU FAM211A (11726209_a_at) / Fold change /veh FAM211A (11726209_a_at) / RFU RGS16 (11746705_a_at) / Fold change /veh RGS16 (11746705_a_at) / RFU VCAN (11755009_s_at) / Fold change /veh VCAN (11755009_s_at) / RFU RHOB (11743442_s_at) / Fold change /veh RHOB (11743442_s_at) / RFU RGS16 (11720943_a_at) / Fold change /veh RGS16 (11720943_a_at) / RFU RGS16 (11720944_at) / Fold change /veh RGS16 (11720944_at) / RFU, VPS4B / Fold change vs veh, VPS4B / RFU, CREB1 / Fold change vs veh, CREB1 / RFU, DNAJC13 / Fold change vs veh, DNAJC13 / RFU, GNAQ / Fold change vs veh, GNAQ / RFU, CDK5R1 / Fold change vs veh, CDK5R1 / RFU, ZRANB3 / Fold change vs veh, ZRANB3 / RFU, CUL4A / Fold change vs veh, CUL4A / RFU, CCNY / Fold change vs veh, CCNY / RFU, UFL1 / Fold change vs veh, UFL1 / RFU, COG3 / Fold change vs veh, COG3 / RFU, DIAPH2 / Fold change vs veh, DIAPH2 / RFU, SKA2 / Fold change vs veh, SKA2 / RFU, AFF3 / Fold change vs veh, AFF3 / RFU, LMF1 / Fold change vs veh, LMF1 / RFU, IPO11 / Fold change vs veh, IPO11 / RFU, DFFB / Fold change vs veh, DFFB / RFU, FOXP1 / Fold change vs veh, FOXP1 / RFU, CARD8 / Fold change vs veh, CARD8 / RFU, STRN3 / Fold change vs veh, STRN3 / RFU, ADK / Fold change vs veh, ADK / RFU, RASSF2 / Fold change vs veh, RASSF2 / RFU, WIPF1 / Fold change vs veh, WIPF1 / RFU, LARP1B / Fold change vs veh, LARP1B / RFU, RASA1 / Fold change vs veh, RASA1 / RFU, RB1 / Fold change vs veh, RB1 / RFU, PPFIA1 / Fold change vs veh, PPFIA1 / RFU, MAT2A / Fold change vs veh, MAT2A / RFU, CCT5 / Fold change vs veh, CCT5 / RFU, WDR92 / Fold change vs veh, WDR92 / RFU, CUX1 / Fold change vs veh, CUX1 / RFU, TTC7A / Fold change vs veh, TTC7A / RFU, TMEM135 / Fold change vs veh, TMEM135 / RFU, DEPTOR / Fold change vs veh, DEPTOR / RFU, CPM / Fold change vs veh, CPM / RFU, DNAJB6 / Fold change vs veh, DNAJB6 / RFU, CACNA2D3 / Fold change vs veh, CACNA2D3 / RFU, DTX4 / Fold change vs veh, DTX4 / RFU, TFCP2 / Fold change vs veh, TFCP2 / RFU, GMCL1 /// GMCL1P1 / Fold change vs veh, GMCL1 /// GMCL1P1 / RFU, AEBP2 / Fold change vs veh, AEBP2 / RFU, SNHG1 /// SNORD22 /// SNORD25 /// SNORD26 /// SNORD27 /// SNORD28 /// SNORD29 /// SNORD31 / Fold change vs veh, SNHG1 /// SNORD22 /// SNORD25 /// SNORD26 /// SNORD27 /// SNORD28 /// SNORD29 /// SNORD31 / Fold change (Aza/veh), C12orf56 (ProbeSet 11735607_a_at) / Fold change (ACY-1035/veh), C12orf56 (ProbeSet 11735607_a_at) / Fold change (Aza/veh), FGFR1OP (ProbeSet 11751329_s_at) / Fold change (ACY-1035/veh), FGFR1OP (ProbeSet 11751329_s_at) / Fold change (Aza/veh), VPS36 (ProbeSet 11739960_a_at) / Fold change (ACY-1035/veh), VPS36 (ProbeSet 11739960_a_at) / RFU SYPL1 (11715823_x_at) / Fold change /veh SYPL1 (11715823_x_at) / RFU IGFBP7 (11715501_s_at) / Fold change /veh IGFBP7 (11715501_s_at) / RFU REEP3 (11722064_at) / Fold change /veh REEP3 (11722064_at) / RFU IGLL1 (11728026_x_at) / Fold change /veh IGLL1 (11728026_x_at): dose or concentration left out as unconfirmed
Details: MV-4-11 cells, 48 hours

`Nc1ccc(-c2cccs2)cc1NC(=O)c1ccc2c(c1)cc(C1CC1)n2CCN1CCOCC1` [ACY-1035] was tested, and the “Fold change /veh ACY1 (11761880_at)” value was 1.19.
